Assay results: US8252832B2, “Kinesin inhibitors as cancer therapeutics” (Novartis AG, priority 2007, dated 2012)
pIC50: −log10 of the molar value. Where two headings read alike, the source gives them in different places. Marks after values point to notes of the source that are not given here. Each block holds one molecule with its values, some of them ahead of it.

Assays:
[1] = tested on: KB8.5 tumor xenograft; experiment: KB8.5 tumor xenograft model (P-gp expressing), tumor response; assay type: in vivo, mouse; settings: for ΔT/ΔC, Day 11 (%): q4d × 3
Experimental: Cells were cultured for fewer than 10 passages prior to use. […] All data were expressed as mean and SEM. Between-groups comparisons for final tumor measurements were performed using the one-way ANOVA pair-wise analysis. Significance was determined using Kruskal-Wallis one-way ANOVA on Ranks, followed by appropriate post-hoc test (Dunn's Method or Tukey Test) for multiple pair-wise comparisons. Statistical analysis was carried out using SigmaStat (Systat Software Inc., San Jose, Calif.).

[2] = In vivo pharmacokinetic parameters (clearance, half-life, AUC); settings: for clearance: read-out: In vivo Clearance rate
[3] = biological target: T1, motor domain of human KSP (Eg 5, KNSL1) (Homo sapiens, UniProt P52732); experiment: Assay for determining KSP activity (microtubule/KSP ATPase, Biomol Green); assay type: biochemical; settings: read-out: In vitro activity (IC-50 - nm)
T1 construct: KSP motor protein (i.e., the KSP motor domain); made in house
T1 sequence (P52732 18-359 limits assumed): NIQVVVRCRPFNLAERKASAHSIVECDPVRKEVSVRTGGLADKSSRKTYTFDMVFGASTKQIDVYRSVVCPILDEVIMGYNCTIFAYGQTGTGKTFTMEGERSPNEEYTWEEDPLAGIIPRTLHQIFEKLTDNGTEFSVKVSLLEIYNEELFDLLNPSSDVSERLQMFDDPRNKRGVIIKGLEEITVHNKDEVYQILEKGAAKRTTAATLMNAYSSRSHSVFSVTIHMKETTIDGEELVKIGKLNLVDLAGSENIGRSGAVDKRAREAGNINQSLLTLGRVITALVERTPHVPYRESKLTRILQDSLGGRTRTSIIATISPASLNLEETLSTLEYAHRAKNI
Experimental: Purified microtubules obtained from bovine brain were purchased from Cytoskeleton Inc. (Denver, Colo., USA). The motor domain of human KSP (Eg 5, KNSL1) was cloned, expressed, and purified to greater than 95% homogeneity. Biomol Green™ was purchased from Affinity Research Products Ltd. (Matford Court, Exeter, Devon, United Kingdom). Microtubules and KSP motor protein (i.e., the KSP motor domain) were diluted in assay buffer (20 mM Tris-HCl (pH 7.5), 1 mM MgCl2, 10 mM DTT and 0.25 mg/mL BSA) to a final concentration of 35 μg/mL microtubules and 45 nM KSP. The microtubule/KSP mixture was then pre-incubated at 37° C. for 10 min to promote the binding of KSP to microtubules.
To each well of the testing plate (384-well plate) containing 1.25 μL of inhibitor or test compound in DMSO (or DMSO only, in the case of controls) were added 25 μL of ATP solution (ATP diluted to a concentration of 300 μM in assay buffer) and 25 μL of the above-described microtubule/KSP solution. The plates were incubated at RT for 1 hour. Following incubation, 65 μL of Biomol Green™ (a malachite green-based dye that detects the release of inorganic phosphate) was added to each well. The plates were incubated for an additional 5-10 minutes then the absorbance at 630 nm was determined using a Victor II plate reader. The amount of absorbance at 630 nm corresponded to the amount of KSP activity in the samples. The IC50 of each inhibitor or test compound was then determined based on the decrease in absorbance at 630 nm at each concentration, via nonlinear regression using either XLFit for Excel or Prism data analysis software by GraphPad Software Inc.

[4] = for Survival (alive/total) / % Max. Δ body weight, (Day): q4d × 3
Experimental: Experiments were performed using outbred athymic nu/nu mice (Charles River Laboratories) approximately 6-8 weeks old. Upon arrival, animals received a subcutaneous microchip implant (AVID, Folsom, La.) in the subscapular region for identification of individuals. Animals were allowed to acclimatize for 1 week before any experimental procedures began.
Compound IIa, compound IIc, compound IIa (shown below), and SB-715992 were formulated in a Captisol®-based formulation. Doses were administered intravenously (i.v.) and adjusted to each animal's body weight. Formulations were made once at the beginning of study and stored at room temperature. Clinical grade paclitaxel was purchased pre-mixed in a cremophor-based vehicle (Mayne Pharma, now Hospira, Lake Forest, Ill., catalog #NDC-6170334209) and diluted in sterile saline to provide a dose volume of 16 mL/kg for a 30 mg/kg dose administered intraperitoneally (i.p.)
For the efficacy studies, mice were enrolled with a mean tumor volume of approximately 300 mm^3. Tumor xenografts were measured in two dimensions (L and W) with digital calipers twice weekly from the start of dosing on Day 0. Tumor volume was calculated as (L×W^2)/2. Body weights were measured twice weekly and clinical observations were recorded daily. Tumor volume and body weights were captured and stored by StudyDirector software (StudyLog, South San Francisco, Calif.).

[5] = tested on: KB3.1; experiment: CellTiter-Glo proliferation, 72 hours; assay type: cell-based; settings: Homo sapiens, KB 3-1; Epidermoid, KB3.1, 72 hours
Text: (§1) Cell lines used were as follows: HCT-116 (National Cancer Institute's DCTF Tumor Repository, catalog #NCI-502568, Rockville, Md.), HCT-15 (National Cancer Institute's DCTF Tumor Repository, catalog#NCI-502711, Rockville, Md. available from American Type Tissue Collection, catalog #CLL-225), KB-3-1 (available from DSMZ, Deutsche Sammlung von Mikroorganismen und Zellkulturen GmbH (German Collection of Microorganisms and Cell Cultures—catalog number ACC 158), KB-V1 (available from DSMZ—catalog number ACC 149), AGS (available from American Type Culture Collection, Manassas Va., catalog number CRL-1739™), N87 (available from American Type Culture Collection, Manassas Va., catalog number CRL-5822), Hel92.1.7 (available from American Type Culture Collection, Manassas Va., catalog number TIB 180), K562 (available from American Type Culture Collection, Manassas Va., catalog number CRL-243™), MV4; 11 (American Tissue Culture Collection, Manassas Va., catalog number CRL-9591) and U937 (available from American Type Culture Collection, Manassas Va., catalog number CRL-1593.2).
(§2) Cells were plated in 96-well plates at densities of about 500 cells per well of a 96-well plate and allowed to grow for 24 hours. The cells were then treated with various concentrations of compounds for 72 hours. Then, 100 μl of CellTiter-Glo® reagent was added (Promega Corporation). CellTiter-Glo® is used in a homogeneous method of determining the number of viable cells using the single CellTiter-Glo® reagent to detect ATP (U.S. Pat. Nos. 6,602,677 and 7,241,584) (see Promega product catalog #G7570). Following the addition of the CellTiter-Glo® reagent, the cells were incubated in the dark for 30 minutes. The amount of luminescence was determined for each well using a Wallac Trilux plate reader, which correlates with the number of cells per well. The number of viable cells in the wells that receive only DMSO (0.5%) served as an indication of 0% inhibition, while wells without cells served as 100% inhibition of cell growth. […] This broad activity is consistent with a compound that is a mitotic inhibitor.

[6] = tested on: HCT-15; experiment: CellTiter-Glo proliferation, 72 hours; assay type: cell-based; settings: Homo sapiens; Colon, HCT-15, 72 hours
Text: as §1, §2

[7] = tested on: KB8.5; experiment: CellTiter-Glo proliferation, 72 hours; assay type: cell-based; settings: Homo sapiens; Epidermoid, KB8.5, 72 hours

SMILES: C[C@H](O)C(=O)N(CC[C@H](N)CF)[C@@H](c1nc(-c2cc(F)ccc2F)cn1Cc1ccccc1)C(C)(C)C [Compound IIc]
percent ΔT/ΔC ([1]; 1.25 mg/kg, q4d×3, day 11): 39%
ΔT/ΔC, Day 11 (%) ([1]; Table 14 study, 1.25 mg/kg, i.v., KB8.5 xenograft, female nu/nu mice, p < 0.05 versus vehicle): 39* %
AUC [2]: 1700 ng·h/mL
half-life [2]: 1.83 h
clearance [2]: 47 mL/min/kg
pIC50 [3]: 9.05
body weight ([4]; 2.5 mg/kg treated group): significant weight loss
Survival (alive/total) ([4]; Table 14 study, 1.25 mg/kg, i.v.): 9/9
% Max. Δ body weight, (Day) ([4]; Table 14 study, 1.25 mg/kg, i.v., D11): −5 (D11) %
% Max. Δ body weight, (Day) ([4]; Table 14 study, 2.5 mg/kg, i.v., D8): −10 (D8) %
Survival (alive/total) ([4]; Table 14 study, 2.5 mg/kg, i.v., due to 4/9 mice having 15% weight loss or more): All down on Day 8

SMILES: COCC(=O)N(CC[C@H](N)CF)[C@@H](c1nc(-c2cc(F)ccc2F)cn1Cc1ccccc1)C(C)(C)C [Compound Ia]
efficacy in the KB8.5 tumor xenograft model ([1]; 5 mg/kg, q4d×3): not efficacious
ΔT/ΔC, Day 11 (%) ([1]; Table 15 study, 1.25 mg/kg, i.v., not statistically different from vehicle): 84%
ΔT/ΔC, Day 11 (%) ([1]; Table 15 study, 2.5 mg/kg, i.v., not statistically different from vehicle): 61%
ΔT/ΔC, Day 11 (%) ([1]; Table 15 study, 5 mg/kg, iv., not statistically different from vehicle): 66%
GI50 [5]: 0.4 nM
GI50 [6]: 0.3 nM
AUC [2]: 2670 ng·h/mL
half-life [2]: 1.95 h
clearance [2]: 29 mL/min/kg
pIC50 [3]: 9.22
Survival (alive/total) ([4]; Table 15 study, 1.25 mg/kg, i.v.): 10/10
% Max. Δ body weight, (Day) ([4]; Table 15 study, 1.25 mg/kg, i.v., D11): 1 (D11) %
Survival (alive/total) ([4]; Table 15 study, 2.5 mg/kg, i.v.): 10/10
% Max. Δ body weight, (Day) ([4]; Table 15 study, 2.5 mg/kg, i.v., D4): −0.4 (D4) %
Survival (alive/total) ([4]; Table 15 study, 5 mg/kg, iv.): 10/10
% Max. Δ body weight, (Day) ([4]; Table 15 study, 5 mg/kg, iv., D4): −2 (D4) %
GI50 [7]: 0.4 nM

AUC [2]: 867 ng·h/mL
half-life [2]: 1.5 h
clearance [2]: 94 mL/min/kg
pIC50 [3]: 7.66
SMILES: CC(=O)N(CC[C@H](N)CF)[C@@H](c1nc(-c2cc(F)ccc2F)cn1Cc1ccccc1)C(C)(C)C [Compound Ib]
